Assay results taken from patent US5126356A, “Piperidine compounds” (Adir et Compagnie, priority 1989, dated 1992).

Columns and labels:
type L calcium channels [1] = assay: Binding: displacement of [3H] D888 at the Ca2+ channel; conditions: read-out: K0.5 (50% of specifically fixed radioactivity displaced)
beagle dogs = assay: Anti-ischaemic activity, Protocol 1: tight coronary stenosis in anaesthetised beagle dogs; assay type: in vivo, dog
Experimental: The studies are carried out on beagle dogs weighing from 9 to 12 kg which have been anaesthetised with pentobarbital sodium 30 mg/kg i.v., intubated and ventilated, and subjected to a thoracotomy at the 5th left intercostal space.
An electromagnetic ring connected to a Gould SP 2202 electromagnetic flow meter is placed around the circumflex branch of the left coronary artery, and an inflatable balloon is placed just downstream of that ring for the production of coronary stenoses under the control of the coronary output.
Piezoelectric crystals (5 MHz) connected to a Triton sonomicrometer are implanted in the subendocardium of the left ventricular wall, in an area that is to become ischaemic, for measuring local myocardial contractility; epicardial electrodes are placed in the same area for recording the epicardial electrocardiogram.
Myocardial ischaemia is induced by tight coronary stenosis that reduces coronary output by about 70%.
The same coronary stenosis, the effects of which are reversible and reproducible, is produced in the same animal for two periods of 10 minutes, separated by a recovery period of 45 minutes.
Treatments are administered intravenously 2 minutes after coronary stenosis:
injection of solvent after the first coronary stenosis, which serves as control,
injection of the test product after the second coronary stenosis.
Myocardial contractility is evaluated by the proportion of systolic shortening of the lengths of the segments between the piezoelectric crystals.
Hypokinesia in the ischaemic area is expressed as percentage variation relative to the contractility measured in the control period.
Modification of the epicardial ECG in the ischaemic area consists in raising the epicardial ST segment measured in millivolts (mV).

Dopamine D1 = Dopamine D1 (Homo sapiens, UniProt P21728); assay: Binding to neurotransmitter receptors: D1 ([3H] SCH 23390); conditions: read-out: K0.5
slow calcium channels = target: T1, slow calcium channels (Rattus norvegicus, UniProt P22002); assay: Electrophysiology, whole cell patch clamp on A7 r5, slow calcium entry flow; assay type: cell-based
T1 construct: cell lines from the aorta of newly born rats; host or cells: A7 r5
Experimental: b) A7 r5 : cell lines from the aorta of newly born rats (ATCC No. CRL 1444), cultivated under the conditions indicated by the American Type Culture Collection (ATCC).
The studies were carried out on the A7 r5 cell line using the whole cell patch-clamp technique described by HAMILL O., MARTY A., WEHER E., SAKMANN B., SIGWORTH F. F., Improved patch clamp techniques for high resolution current recording from cells and cell from membrane patches. Pflugers Arch., 391, 85-100 (1981).

5HT1A = target: T2, 5HT1A (Homo sapiens, UniProt P08908); assay: Binding to neurotransmitter receptors: 5HT1A ([3H] 8 OH DPAT); conditions: read-out: K0.5
T2 sequence (P08908 1-422): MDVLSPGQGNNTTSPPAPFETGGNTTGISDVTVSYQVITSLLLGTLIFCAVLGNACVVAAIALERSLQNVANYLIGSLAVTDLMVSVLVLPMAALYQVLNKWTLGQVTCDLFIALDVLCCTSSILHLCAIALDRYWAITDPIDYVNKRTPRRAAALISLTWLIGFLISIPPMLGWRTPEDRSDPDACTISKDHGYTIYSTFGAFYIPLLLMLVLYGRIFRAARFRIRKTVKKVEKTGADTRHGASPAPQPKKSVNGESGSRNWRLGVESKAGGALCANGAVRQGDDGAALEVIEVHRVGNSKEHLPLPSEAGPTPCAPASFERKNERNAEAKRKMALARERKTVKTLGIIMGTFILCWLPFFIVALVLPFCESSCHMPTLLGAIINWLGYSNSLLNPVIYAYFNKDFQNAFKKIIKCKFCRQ

Alpha adrenergic α2 = assay: Binding to neurotransmitter receptors: alpha2 adrenergic ([3H] Rauwolscine); conditions: α2, [3H] Rauwolscine; read-out: K0.5
Dopamine D2 = Dopamine D2 (Homo sapiens, UniProt P14416); assay: Binding to neurotransmitter receptors: D2 ([3H] 205 501); conditions: read-out: K0.5
type L calcium channels [2] = target: T3, type L calcium channels (Oryctolagus cuniculus, UniProt P07293); assay: Binding: displacement of [3H] PN 200-110 at the Ca2+ channel
T3 construct: microsomal fractions enriched with type L calcium channels; from tissue; host or cells: microsomal fractions

cardiac cells = assay: Protection of cardiac cells from necrosis induced by intracellular acidosis (αHBDH release); assay type: cell-based, rat
Experimental: a) Cardiac cells: the cardiac cells are prepared from the hearts of newly born (3 days) Wistar rats in accordance with the technique of RENAUD JF., MEAUX JP., ROMEY G., SCHMID A., LAZDUNSKI M., Activation of the voltage-dependent Ca^2+ channels in rat heart cells by dihydropyridine derivative--Biochem. Biophys. Res. Commun., 125, 405-412 (1984).
The cardiomyocytes are isolated from the ventricles by enzymatic dissociation and cultured at 185,000 cells/cm^2. The cells are kept at 37° C. under an air/CO2 atmosphere (95 V/5 V) saturated with water. The cardiomyocytes are used between the 3rd and 8th day following culturing.
Intracellular acidosis is induced in accordance with the conditions published by RENAUD JF., Internal pH Na^+ and Ca^2+ regulation by trimetazidine during cardiac cell acidosis. Cardiovasc. Drugs and Ther., 1, 667-686 (1988) in the presence or absence of the products to be tested. Cellular necrosis is evaluated by measuring by spectrophotometry using the Boerhinger 124800 kit the kinetics of the release of a cytosolic enzyme α-hydroxybutyrate dehydrogenase (αHBDH) into the extracellular medium.
The signal measured corresponds to the amplitude of the necrosis induced by the acidosis. The values are the means ±SD. The number of experiments is indicated in parentheses.

Alpha adrenergic α1 = assay: Binding to neurotransmitter receptors: alpha1 adrenergic ([3H] Prazosin); conditions: α1, [3H] Prazosin; read-out: K0.5
5HT2 = 5HT2 (Homo sapiens, UniProt P28223); assay: Binding to neurotransmitter receptors: 5HT2 ([3H] Ketanserine)
[3] = system: neurotransmitter receptors (5HT, α,β); assay: Effect on neurotransmitter receptors (panel as a whole); assay type: binding; conditions: exception of the dopaminergic receptors
Experimental: The competition experiments between the different radioligands and the reference molecules are carried out under the standard binding conditions according to O'BRIEN R. A., Receptor binding in drug research. In: Clinical Pharmacology, vol. 5, DEKKER M. Inc., New York and Basle (1986). In all cases, after the required linkage time, the bound radioactivity is separated from the free component by in vacuo filtration on a GF/C filter.

Beta adrenergic β = assay: Binding to neurotransmitter receptors: beta adrenergic ([3H] DHA); conditions: read-out: K0.5

T3 sequence (P07293 whole entry): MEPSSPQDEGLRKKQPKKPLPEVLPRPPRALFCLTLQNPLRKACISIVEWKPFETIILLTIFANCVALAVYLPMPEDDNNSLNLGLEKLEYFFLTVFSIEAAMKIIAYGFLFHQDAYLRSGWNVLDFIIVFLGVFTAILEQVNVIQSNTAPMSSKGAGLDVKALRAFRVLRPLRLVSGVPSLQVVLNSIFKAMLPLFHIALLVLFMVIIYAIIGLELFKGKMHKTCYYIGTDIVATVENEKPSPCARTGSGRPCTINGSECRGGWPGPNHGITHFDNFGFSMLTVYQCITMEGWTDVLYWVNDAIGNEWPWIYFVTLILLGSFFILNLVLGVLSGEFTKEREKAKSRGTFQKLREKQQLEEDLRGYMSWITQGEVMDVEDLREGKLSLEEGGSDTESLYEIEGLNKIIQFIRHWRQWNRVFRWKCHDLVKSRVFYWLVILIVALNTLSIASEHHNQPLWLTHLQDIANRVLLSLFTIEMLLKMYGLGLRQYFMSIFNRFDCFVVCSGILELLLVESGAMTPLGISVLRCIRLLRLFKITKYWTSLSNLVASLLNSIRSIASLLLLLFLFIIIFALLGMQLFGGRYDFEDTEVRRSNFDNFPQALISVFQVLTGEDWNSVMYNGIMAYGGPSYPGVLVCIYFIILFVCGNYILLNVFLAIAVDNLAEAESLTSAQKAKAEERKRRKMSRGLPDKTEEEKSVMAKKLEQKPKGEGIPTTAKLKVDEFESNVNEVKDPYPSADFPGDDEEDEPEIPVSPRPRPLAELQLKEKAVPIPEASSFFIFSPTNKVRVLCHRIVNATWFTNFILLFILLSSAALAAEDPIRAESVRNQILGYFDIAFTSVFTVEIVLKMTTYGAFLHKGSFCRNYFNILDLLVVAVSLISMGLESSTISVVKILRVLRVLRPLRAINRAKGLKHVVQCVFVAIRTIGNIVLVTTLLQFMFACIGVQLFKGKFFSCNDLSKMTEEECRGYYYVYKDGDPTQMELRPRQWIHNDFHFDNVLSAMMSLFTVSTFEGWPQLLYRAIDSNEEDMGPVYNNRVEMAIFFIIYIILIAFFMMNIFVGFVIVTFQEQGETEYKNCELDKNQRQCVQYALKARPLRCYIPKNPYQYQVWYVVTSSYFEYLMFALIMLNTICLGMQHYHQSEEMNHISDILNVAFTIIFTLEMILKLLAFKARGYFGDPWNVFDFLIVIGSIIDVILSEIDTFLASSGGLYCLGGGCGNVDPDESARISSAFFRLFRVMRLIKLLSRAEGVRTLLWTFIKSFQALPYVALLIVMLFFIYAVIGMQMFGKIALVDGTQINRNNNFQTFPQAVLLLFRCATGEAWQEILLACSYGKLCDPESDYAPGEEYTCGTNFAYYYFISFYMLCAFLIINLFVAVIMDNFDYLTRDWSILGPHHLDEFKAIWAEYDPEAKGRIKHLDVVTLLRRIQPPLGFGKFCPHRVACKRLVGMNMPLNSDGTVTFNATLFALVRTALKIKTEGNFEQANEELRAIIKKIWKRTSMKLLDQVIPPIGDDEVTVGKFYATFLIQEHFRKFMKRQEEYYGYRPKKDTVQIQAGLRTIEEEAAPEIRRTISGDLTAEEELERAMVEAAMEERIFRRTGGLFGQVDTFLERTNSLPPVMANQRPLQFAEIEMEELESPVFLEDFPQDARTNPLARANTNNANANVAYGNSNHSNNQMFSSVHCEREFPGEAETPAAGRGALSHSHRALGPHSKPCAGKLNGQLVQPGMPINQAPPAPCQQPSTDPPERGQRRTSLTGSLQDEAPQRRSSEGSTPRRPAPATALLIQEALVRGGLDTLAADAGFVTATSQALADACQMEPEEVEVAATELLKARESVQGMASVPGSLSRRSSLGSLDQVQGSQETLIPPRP
T3 sequence (P13806 27-960 partner limits assumed): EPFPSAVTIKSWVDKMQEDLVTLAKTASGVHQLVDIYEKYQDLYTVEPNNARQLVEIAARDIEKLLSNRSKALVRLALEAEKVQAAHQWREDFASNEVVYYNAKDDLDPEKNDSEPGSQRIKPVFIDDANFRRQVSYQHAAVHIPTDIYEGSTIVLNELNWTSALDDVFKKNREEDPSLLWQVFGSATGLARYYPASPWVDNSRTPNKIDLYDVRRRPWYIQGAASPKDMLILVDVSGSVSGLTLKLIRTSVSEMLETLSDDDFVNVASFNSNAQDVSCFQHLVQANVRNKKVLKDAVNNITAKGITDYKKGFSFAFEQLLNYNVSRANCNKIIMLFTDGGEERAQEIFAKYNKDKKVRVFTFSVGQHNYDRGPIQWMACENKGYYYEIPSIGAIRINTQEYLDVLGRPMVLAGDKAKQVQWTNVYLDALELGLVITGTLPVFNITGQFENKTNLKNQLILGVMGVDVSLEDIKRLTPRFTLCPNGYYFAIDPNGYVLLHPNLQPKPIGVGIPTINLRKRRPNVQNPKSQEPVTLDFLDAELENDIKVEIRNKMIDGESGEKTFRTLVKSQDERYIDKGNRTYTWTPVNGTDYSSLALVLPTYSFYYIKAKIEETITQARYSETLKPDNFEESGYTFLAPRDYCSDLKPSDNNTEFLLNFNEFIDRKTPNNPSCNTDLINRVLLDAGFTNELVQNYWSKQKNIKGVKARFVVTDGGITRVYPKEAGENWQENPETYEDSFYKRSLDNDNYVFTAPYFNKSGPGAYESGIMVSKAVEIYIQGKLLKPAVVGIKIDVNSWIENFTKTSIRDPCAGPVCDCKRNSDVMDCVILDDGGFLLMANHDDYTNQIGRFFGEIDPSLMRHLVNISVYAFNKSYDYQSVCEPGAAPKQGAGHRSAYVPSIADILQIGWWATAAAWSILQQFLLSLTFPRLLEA
T3 sequence (P13806 961-1106 partner limits assumed): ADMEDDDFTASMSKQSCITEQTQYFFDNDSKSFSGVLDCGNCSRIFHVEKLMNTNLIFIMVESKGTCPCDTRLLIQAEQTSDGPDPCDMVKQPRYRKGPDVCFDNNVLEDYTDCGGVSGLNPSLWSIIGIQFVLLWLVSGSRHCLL
T3 sequence (P19517 whole entry partner): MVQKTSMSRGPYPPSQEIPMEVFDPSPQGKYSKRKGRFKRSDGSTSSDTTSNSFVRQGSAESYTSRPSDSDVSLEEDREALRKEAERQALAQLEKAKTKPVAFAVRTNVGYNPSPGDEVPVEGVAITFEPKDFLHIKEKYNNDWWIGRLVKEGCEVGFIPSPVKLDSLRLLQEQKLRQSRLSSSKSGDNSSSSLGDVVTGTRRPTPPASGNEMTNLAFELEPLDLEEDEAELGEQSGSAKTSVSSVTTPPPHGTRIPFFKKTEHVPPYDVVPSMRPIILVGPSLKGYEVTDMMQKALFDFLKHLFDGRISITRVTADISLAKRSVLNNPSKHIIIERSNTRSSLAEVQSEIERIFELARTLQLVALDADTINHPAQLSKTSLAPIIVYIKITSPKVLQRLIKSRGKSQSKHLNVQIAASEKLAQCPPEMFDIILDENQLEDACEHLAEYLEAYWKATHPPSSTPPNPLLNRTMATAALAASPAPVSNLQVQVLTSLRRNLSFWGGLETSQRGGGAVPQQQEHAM
T3 sequence (P19518 whole entry partner): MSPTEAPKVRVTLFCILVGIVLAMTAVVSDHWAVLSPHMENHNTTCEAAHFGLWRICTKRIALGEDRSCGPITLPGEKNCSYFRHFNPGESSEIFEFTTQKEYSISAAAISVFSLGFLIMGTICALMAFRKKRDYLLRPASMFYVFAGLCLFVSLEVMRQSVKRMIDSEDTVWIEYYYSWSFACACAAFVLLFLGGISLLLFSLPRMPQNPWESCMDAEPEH
5HT2, sequence (P28223 whole entry, species assumed): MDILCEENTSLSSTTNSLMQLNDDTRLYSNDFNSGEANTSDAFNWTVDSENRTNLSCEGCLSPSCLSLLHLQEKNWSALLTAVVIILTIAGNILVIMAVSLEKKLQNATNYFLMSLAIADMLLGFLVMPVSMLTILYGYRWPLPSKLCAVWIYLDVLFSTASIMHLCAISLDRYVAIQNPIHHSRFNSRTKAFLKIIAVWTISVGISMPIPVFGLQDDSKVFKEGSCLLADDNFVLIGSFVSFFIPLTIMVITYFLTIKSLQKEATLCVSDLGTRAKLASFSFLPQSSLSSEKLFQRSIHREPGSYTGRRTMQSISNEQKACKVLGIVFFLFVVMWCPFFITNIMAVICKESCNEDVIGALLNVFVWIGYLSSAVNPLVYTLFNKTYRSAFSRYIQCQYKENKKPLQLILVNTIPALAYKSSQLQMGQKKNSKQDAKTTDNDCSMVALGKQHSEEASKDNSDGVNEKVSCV
Dopamine D1, sequence (P21728 whole entry): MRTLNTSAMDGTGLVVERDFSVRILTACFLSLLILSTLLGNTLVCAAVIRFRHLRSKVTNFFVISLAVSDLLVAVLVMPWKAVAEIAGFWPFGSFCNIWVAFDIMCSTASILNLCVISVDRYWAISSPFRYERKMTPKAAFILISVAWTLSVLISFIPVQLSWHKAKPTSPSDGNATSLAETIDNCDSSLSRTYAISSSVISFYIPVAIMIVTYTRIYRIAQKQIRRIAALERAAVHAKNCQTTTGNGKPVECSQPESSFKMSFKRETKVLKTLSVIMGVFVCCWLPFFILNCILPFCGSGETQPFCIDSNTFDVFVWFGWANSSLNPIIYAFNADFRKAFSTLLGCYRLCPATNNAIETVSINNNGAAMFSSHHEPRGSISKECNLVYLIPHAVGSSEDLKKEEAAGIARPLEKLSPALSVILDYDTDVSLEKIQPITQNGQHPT

For `COc1ccc(CSC2CCN(CC=Cc3ccccc3)CC2)c(OC)c1OC` [Example 1, 4-(2,3,4-trimethoxybenzylthio)-1-cinnamylpiperidine], the IC50 (type L calcium channels [1]) was 1300 nM, the Contractility delta % (beagle dogs; 10 minutes after treatment, 1 mg/kg i.v., solvent -44.5) was -24.3% and the “Epicardial ST delta mV” value (beagle dogs; 10 minutes after treatment, 1 mg/kg, solvent +4) was “+2 mV”. For the same molecule, the “Epicardial ST delta mV” value (beagle dogs; Stenosis (before treatment), 1 mg/kg group, solvent +4.5) was “+4.5 mV”, the Contractility delta % (beagle dogs; Stenosis (before treatment), 1 mg/kg i.v. group, solvent -45.8) was -45% and the “anti-ischaemic effect (in words)” value (beagle dogs; intravenous, Protocols 1 and 2) was “markedly reduces both preventively and curatively the electrocardiographic modifications and the modifications of myocardial contractility induced by ischaemia”. For the same molecule, the IC50 (Dopamine D1) was 300 nM, the “inhibition of slow calcium channels / Ca2+ entry flow (in words)” value (slow calcium channels) was “inhibition of the Ca^2+ entry flow in a dose-dependent manner” and the EC50 (slow calcium channels; whole cell patch clamp, A7 r5, read-out: semi-effect (EC50), inhibition of the slow calcium entry flow) was 10000 nM. For the same molecule, the IC50 (5HT1A) was 3000 nM, the IC50 (Alpha adrenergic α2) was 900 nM and the IC50 (Dopamine D2) was 300 nM. The “binding to the slow Ca2+ channel (in words)” value (type L calcium channels [2]) was “binds to the receptors of the slow Ca^2+ channel”, the IC50 (type L calcium channels [2]; [3H] PN 200-110, read-out: K0.5 (50% of specifically fixed radioactivity displaced)) was 1000 nM and the activity at 0.3 µM (cardiac cells; Rattus norvegicus, Cardiomyocyte, 0.3 μM, control after acidosis alone 100%, before acidosis 0%, mean ±SD, read-out: amplitude of the necrosis induced by the acidosis) was 144%. It also gave an activity at 1 µM (cardiac cells; Rattus norvegicus, Cardiomyocyte, 1 μM, control after acidosis alone 100%, mean ±SD, read-out: amplitude of the necrosis induced by the acidosis) of 21.9%, an activity at 3 µM (cardiac cells; Rattus norvegicus, Cardiomyocyte, 3 μM, control after acidosis alone 100%, mean ±SD, read-out: amplitude of the necrosis induced by the acidosis) of 1.42% and an activity at 10 µM (cardiac cells; Rattus norvegicus, Cardiomyocyte, 10 μM, control after acidosis alone 100%, mean ±SD, read-out: amplitude of the necrosis induced by the acidosis) of 2.14%. The activity at 30 µM (cardiac cells; Rattus norvegicus, Cardiomyocyte, 30 μM, control after acidosis alone 100%, mean ±SD, read-out: amplitude of the necrosis induced by the acidosis) was 9.68%, the minimal effective concentration (cardiac cells; Rattus norvegicus, 1 μM and above, read-out: concentration at which protection occurs) was at least 1 µM and the “protection of cells with respect to intracellular acidosis (in words)” value (cardiac cells; in vitro) was “protects the cardiac cell from necrosis induced by intracellular acidosis”. The IC50 (Alpha adrenergic α1) was 2000 nM, the IC50 (5HT2) was 1000 nM and the “interaction with neurotransmitter receptors (in words)” value [3] was “interacts in a relatively non-specific manner and with low affinity with neurotransmitter receptors (5HT, α,β) with the exception of the dopaminergic receptors”. For the same molecule, the IC50 (Beta adrenergic β) was 2000 nM.
